The data set in a line: In vitro drug-drug interaction studies of sartan and statin in dissolution media by UV/Visible spectrophotometry. The format is physicochemical. To be noted: SGM and pH 4, 7.4, 9, 37° C., 2 hours; for interaction of losartan and atorvastatin (FIG. 7): LOS + ATR added together at 0 min; for interaction of valsartan and atorvastatin (FIG. 10): VAL + ATR added together at 0 min. As for the experimental part:
Interaction studies by UV/Visible spectrophotometry. In vitro interaction studies of antihypertensive drugs and antilipidemic agents were studied individually by using different kinds of dissolution media: SGM and media at pH 4, 7.4 and 9 as described in the experimental section.
In each set of experiments losartan or valsartan was initially added at 0 min to 500 mL dissolution medium SGM or media at pH 4, 7.4 and 9 already maintained at 37° C. The second drug, statin (ATOR, PRA or SIM) was added at the same time at zero mins. 5 mL samples were collected at regular intervals for 2 hours. The drug contents (losartan in presence of respective interacting drug, and valsartan in presence of respective interacting drug) were quantified spectrophotometrically at their respective λmax by employing simultaneous equations; FIGS. 7-12.
In FIG. 7, the drug contents (losartan in presence of respective interacting drug) were quantified spectrophotometrically at their respective λmax by employing simultaneous equations, that is, by using the molar absorptive value of the drug at a particular wavelength and a particular pH.
As the spectra of the two interacting drugs fused with each other, simultaneous methods were developed to determine losartan/valsartan and drugs of interacting classes along with each other. This technique enables one to quantitate the content of the two drugs co-existing in the same medium, without needing to separate them. To achieve this, molar absorptivity values of both losartan and the respective interacting drug were calculated at λmax of their own and at the λmax of each other using their calibration curves standards in all four pH medium.

For the compound `CC(C)c1c(C(=O)Nc2ccccc2)c(-c2ccccc2)c(-c2ccc(F)cc2)n1CC[C@@H](O)C[C@@H](O)CC(=O)O` [ATR, Atorvastatin], the “interaction of losartan and atorvastatin (FIG. 7)” value is “have undergone interaction”; the “interaction of valsartan and atorvastatin (FIG. 10)” value is listed as “may interact in the digestive tract”.

As to `CCCCc1nc(Cl)c(CO)n1Cc1ccc(-c2ccccc2-c2nn[nH]n2)cc1` [LOS, Losartan], the “interaction of losartan and atorvastatin (FIG. 7)” value is listed as “have undergone interaction”. Besides, where the note is “LOS + PRA added together at 0 min”, the “interaction of losartan and pravastatin (FIG. 8)” value is given as “may interact in the digestive tract”. Further, for the setting “LOS + SIM added together at 0 min”, the “interaction of losartan and simvastatin (FIG. 9)” value was “NOT available in their original form”.

On to `CCCCC(=O)N(Cc1ccc(-c2ccccc2-c2nnn[nH]2)cc1)[C@H](C(=O)O)C(C)C` [VAL, Valsartan], for which the “interaction of valsartan and atorvastatin (FIG. 10)” value is “may interact in the digestive tract”. Further, under “VAL + PRA added together at 0 min”, the “interaction of valsartan and pravastatin (FIG. 11)” value is on record as “may interact in the digestive tract”. The “interaction of valsartan and simvastatin (FIG. 12)” value (VAL + SIM added together at 0 min) is listed as “may interact in the digestive tract”.

The record behind these values is US11221321B2, “Liquid chromatographic method for the simultaneous analysis of antihypertensive and antilipidemic agents and interactions thereof” (Imam Abdulrahman Bin Faisal University, priority 2019, dated 2022).
